System: Methicillin-Resistant Staphylococcus Aureus (MRSA)
Experiment: MRSA bacteriocidal effects in combination with oxacillin
Format: cell-based
Design: concentration or dose not given beside the values

Cc1onc(-c2ccccc2)c1C(=O)N[C@@H]1C(=O)N2[C@@H]1SC(C)(C)[C@@H]2C(=O)O [Drug, oxacillin]
Percentage of plates with no growth (0 min): 16.67%
Percentage of plates with no growth (30 min): 0.00%
Percentage of plates with no growth (120 min): 0.00%
Percentage of plates with no growth (240 min): 0.00%
Percentage of plates with no growth (480 min): 0.00%
Percentage of plates with no growth (1080 min): 0.00%
Percentage of plates with no growth (1440 min): 0.00%
